pIC50: −log10 of the molar value.
Biological target: GTPase KRas (Homo sapiens, UniProt P01116)
Assay: KRAS Biochemical Assay
Experimental: KRAS Biochemical Assay—BODIPY-GDP Exchange TR-FRET. Biochemical compound potencies were assessed by evaluating inhibition of SOS1-mediated nucleotide exchange in KRAS G12D. The SOS1-promoted exchange of fluorescently-labeled GDP (BODIPY-GDP) was monitored by time-resolved fluorescence resonance energy transfer (TR-FRET). Compounds solubilized in DMSO were dispensed as concentration series into 384-well white assay plates. […] The reaction was initiated with the addition of 5 μL of 3 nM recombinant human SOS1 and 300 nM BODIPY-GDP in assay buffer. […] The TR-FRET ratio was determined as the fluorescence at 520 nm divided by the fluorescence at 490 nm multiplied by 10,000. […] The normalized TR-FRET results were plotted against compound concentration, and the data fit to a 4-parameter Hill equation to determine the IC50 values.

Sequence of GTPase KRas (P01116 whole entry): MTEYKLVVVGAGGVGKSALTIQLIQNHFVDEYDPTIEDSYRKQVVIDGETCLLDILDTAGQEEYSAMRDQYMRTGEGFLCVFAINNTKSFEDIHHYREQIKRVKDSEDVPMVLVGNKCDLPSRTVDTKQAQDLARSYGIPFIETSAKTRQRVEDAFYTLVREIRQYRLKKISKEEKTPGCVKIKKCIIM

pIC50: 9.06
Compound: Cc1cc(N)nc(-c2c(Cl)c3c4c(nc(OCC56CC(CO5)C6)nc4c2F)N([C@H](C)c2cccnc2N)CCO3)c1C(F)(F)F [US20240383915, Example 143]
